Patent US20250163038A1, “CBL-B MODULATORS AND USES THEREOF” (Nimbus Clio, Inc., priority 2021, published 2025)

Experiments:
[1] = target: Recombinant human Cbl-b (aa 36-427) (Homo sapiens, UniProt Q13191); test: Cbl-b Biochemical Assay (TR-FRET); conditions: read-out: TR-FRET hCbl-b IC50
[2] = target: T1, Recombinant human c-Cbl (aa 47-435) (Homo sapiens, UniProt P22681); test: c-Cbl Biochemical Assay (TR-FRET); conditions: hc-Cbl Biochemical Assay (TR-FRET); read-out: TR-FRET hcCbl IC50
T1 sequence (P22681 47-435): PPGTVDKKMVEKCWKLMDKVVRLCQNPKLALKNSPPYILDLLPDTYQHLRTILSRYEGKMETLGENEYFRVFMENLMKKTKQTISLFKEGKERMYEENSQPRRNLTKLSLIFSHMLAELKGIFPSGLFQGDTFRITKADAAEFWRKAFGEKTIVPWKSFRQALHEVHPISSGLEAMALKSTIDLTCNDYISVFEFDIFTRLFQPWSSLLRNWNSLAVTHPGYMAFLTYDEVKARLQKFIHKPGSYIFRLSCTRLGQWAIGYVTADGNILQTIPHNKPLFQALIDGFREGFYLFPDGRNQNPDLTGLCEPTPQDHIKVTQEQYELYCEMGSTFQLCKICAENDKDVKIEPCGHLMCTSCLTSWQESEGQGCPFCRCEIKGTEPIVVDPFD

Chain of Recombinant human Cbl-b (aa 36-427) (Q13191 36-427): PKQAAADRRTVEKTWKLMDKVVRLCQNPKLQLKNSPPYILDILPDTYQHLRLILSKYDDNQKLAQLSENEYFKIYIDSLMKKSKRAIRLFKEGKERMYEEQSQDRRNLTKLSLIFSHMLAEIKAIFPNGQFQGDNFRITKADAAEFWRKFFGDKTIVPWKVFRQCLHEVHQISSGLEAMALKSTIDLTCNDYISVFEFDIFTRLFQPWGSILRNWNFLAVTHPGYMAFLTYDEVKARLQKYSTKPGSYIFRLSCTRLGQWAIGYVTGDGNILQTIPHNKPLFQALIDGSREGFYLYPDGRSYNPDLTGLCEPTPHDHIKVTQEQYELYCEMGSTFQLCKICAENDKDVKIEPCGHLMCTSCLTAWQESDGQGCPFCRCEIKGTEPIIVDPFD

Structure (SMILES)	IC50 [1]	IC50 [2]
CC(Cc1nncn1C)c1cccc(-c2nc3ccc(C(=O)N4CCN(C)CC4)c(C(F)(F)F)c3[nH]2)c1 (racemic) [AY-5, (2-(3-(1-(4-Methyl-4H-1,2,4-triazol-3-yl)propan-2-yl)phenyl)-7-(trifluoromethyl)-1H-benzo[d]imidazol-6-yl)(4-methylpiperazin-1-yl)methanone]	10 to 50 µM	10 to 50 µM
C=Cc1cc(C(F)(F)F)c2oc(-c3cccc(-c4ccc(F)cc4-c4nncn4C)c3)nc2c1 (racemic) [DL-1, 2-(4′-Fluoro-2′-(4-methyl-4H-1,2,4-triazol-3-yl)-[1,1′-biphenyl]-3-yl)-7-(trifluoromethyl)-5-vinylbenzo[d]oxazole]	0.2 to 1 µM	1 to 10 µM
CCNc1cc(-c2c(-c3nncn3C)cnn2C)cc(-c2nc3cc(CN4CCC5(CC5)C4)cc(C(F)(F)F)c3o2)n1 [AAC-5, 6-(5-{5-Azaspiro[2.4]heptan-5-ylmethyl}-7-(trifluoromethyl)-1,3-benzoxazol-2-yl)-N-ethyl-4-[2-methyl-4-(4-methyl-1,2,4-triazol-3-yl)pyrazol-3-yl]pyridin-2-amine]	1 to 10 µM	10 to 50 µM
C[C@@H]1CCCN(Cc2cc(C(F)(F)F)c3[nH]c(-c4cccc(-c5ccccc5-c5nncn5C)c4)nc3c2)C1 [AAJ-1, 2-[2′-(4-Methyl-1,2,4-triazol-3-yl)-[1,1′-biphenyl]-3-yl]-6-{[(3R)-3-methylpiperidin-1-yl]methyl}-4-(trifluoromethyl)-3H-1,3-benzodiazole]	1 to 10 µM	10 to 50 µM
Cn1cnnc1CC1(c2cccc(-c3nc4cc(Br)cc(C(F)(F)F)c4o3)c2)COC1 [AAK-1, 5-Bromo-2-(3-(3-((4-methyl-4H-1,2,4-triazol-3-yl)methyl)oxetan-3-yl)phenyl)-7-(trifluoromethyl)benzo[d]oxazole]	0.2 to 1 µM	10 to 50 µM
CCNc1cc(-c2c(-c3nncn3C)cnn2C)cc(-c2nc3cc(CN4CCC5(CC5)C4)cc(C(F)(F)F)c3[nH]2)n1 [AAM-2, 6-(6-{5-Azaspiro[2.4]heptan-5-ylmethyl}-4-(trifluoromethyl)-3H-1,3-benzodiazol-2-yl)-N-ethyl-4-[2-methyl-4-(4-methyl-1,2,4-triazol-3-yl)pyrazol-3-yl]pyridin-2-amine]	1 to 10 µM	10 to 50 µM
CCNc1cc(-c2ccccc2-c2nncn2C)cc(-c2nc3cc(CO)cc(C(F)(F)F)c3[nH]2)n1 [AAN-3, {2-[6-(Ethylamino)-4-[2-(4-methyl-1,2,4-triazol-3-yl)phenyl]pyridin-2-yl]-7-(trifluoromethyl)-1H-1,3-benzodiazol-5-yl}methanol]	10 to 50 µM	10 to 50 µM
CCNc1cc(-c2ccccc2-c2nncn2C)cc(-n2nc3c(C(F)(F)F)cccn3c2=O)n1 [AAO-4, 2-(6-(Ethylamino)-4-(2-(4-methyl-4H-1,2,4-triazol-3-yl)phenyl)pyridin-2-yl)-8-(trifluoromethyl)-[1,2,4]triazolo[4,3-a]pyridin-3(2H)-one]	10 to 50 µM	10 to 50 µM
Cn1cnnc1C[C@]1(c2cccc(-c3nc4cccc(C(F)(F)F)c4o3)c2)C[C@H](C#N)C1 [AAT-14, (1r,3r)-3-((4-Methyl-4H-1,2,4-triazol-3-yl)methyl)-3-(3-(7-(trifluoromethyl)benzo[d]oxazol-2-yl)phenyl)cyclobutane-1-carbonitrile]	1 to 10 µM	10 to 50 µM
Cn1cnnc1-c1cnn(C)c1-c1cccc(-c2nc3cc(CN[C@H]4CCC[C@@H]4O)cc(C(F)(F)F)c3o2)c1 [AAU-6, (1S,2S)-2-(((2-(3-(1-Methyl-4-(4-methyl-4H-1,2,4-triazol-3-yl)-1H-pyrazol-5-yl)phenyl)-7-(trifluoromethyl)benzo[d]oxazol-5-yl)methyl)amino)cyclopentan-1-ol]	0.2 to 1 µM	10 to 50 µM
Cn1cnnc1-c1cnn(C)c1-c1cccc(-c2nc3cc(CN[C@@H]4CCC[C@H]4O)cc(C(F)(F)F)c3o2)c1 [AAV-2, (1R,2R)-2-(((2-(3-(1-Methyl-4-(4-methyl-4H-1,2,4-triazol-3-yl)-1H-pyrazol-5-yl)phenyl)-7-(trifluoromethyl)benzo[d]oxazol-5-yl)methyl)amino)cyclopentan-1-ol]	1 to 10 µM	10 to 50 µM
Cn1cnnc1CC1(c2cccc(-c3nc4cccc(C(F)(F)F)c4[nH]3)c2)COC1 [ABB-2, 2-(3-(3-((4-Methyl-4H-1,2,4-triazol-3-yl)methyl)oxetan-3-yl)phenyl)-7-(trifluoromethyl)-1H-benzo[d]imidazole]	10 to 50 µM	10 to 50 µM
Cn1cnnc1CC1(c2cccc(-c3nc4cccc(C(F)(F)F)n4n3)c2)COC1 [ABC-4, 2-(3-(3-((4-Methyl-4H-1,2,4-triazol-3-yl)methyl)oxetan-3-yl)phenyl)-5-(trifluoromethyl)-[1,2,4]triazolo[1,5-a]pyridine]	10 to 50 µM	10 to 50 µM
C[C@H](Cc1nncn1C)c1cccc(-c2nc3cccc(C(F)(F)F)c3[nH]2)c1 [ABD-9, 2-{3-[(2R)-1-(4-Methyl-1,2,4-triazol-3-yl)propan-2-yl]phenyl}-4-(trifluoromethyl)-3H-1,3-benzodiazole]	10 to 50 µM	10 to 50 µM
Cn1cnnc1CC1(c2cccc(-c3nc4cc(C(=O)N5CCCC5)cc(C(F)(F)F)c4[nH]3)c2)COC1 [ABH-4, (2-(3-(3-((4-Methyl-4H-1,2,4-triazol-3-yl)methyl)oxetan-3-yl)phenyl)-7-(trifluoromethyl)-1H-benzo[d]imidazol-5-yl)(pyrrolidin-1-yl)methanone]	10 to 50 µM	10 to 50 µM
Cn1cnnc1CC1(c2cccc(-c3nc4cc(C(=O)N5CCC6(CC6)C5)cc(C(F)(F)F)c4[nH]3)c2)COC1 [ABJ-2, (2-(3-(3-((4-Methyl-4H-1,2,4-triazol-3-yl)methyl)oxetan-3-yl)phenyl)-7-(trifluoromethyl)-1H-benzo[d]imidazol-5-yl)(5-azaspiro[2.4]heptan-5-yl)methanone]	10 to 50 µM	10 to 50 µM
Cn1cnnc1CC1(c2cccc(-c3nc4cc(CN5CCCC5)cc(C(F)(F)F)c4[nH]3)c2)COC1 [ABL-1, 2-(3-(3-((4-Methyl-4H-1,2,4-triazol-3-yl)methyl)oxetan-3-yl)phenyl)-5-(pyrrolidin-1-ylmethyl)-7-(trifluoromethyl)-1H-benzo[d]imidazole]	0.2 to 1 µM	10 to 50 µM
CCNc1cc(-c2c(-c3nncn3C)cnn2C)cc(-c2nc3ccc(Br)c(C(F)(F)F)c3[nH]2)n1 [ACT-3, 6-(6-Bromo-7-(trifluoromethyl)-1H-benzo[d]imidazol-2-yl)-N-ethyl-4-(1-methyl-4-(4-methyl-4H-1,2,4-triazol-3-yl)-1H-pyrazol-5-yl) pyridin-2-amine]	10 to 50 µM	
CCNc1cc(-c2c(-c3nncn3C)cnn2C)cc(-c2nc3ccc(C)c(C(F)(F)F)c3[nH]2)n1 [ACV-5, N-Ethyl-4-(1-methyl-4-(4-methyl-4H-1,2,4-triazol-3-yl)-1H-pyrazol-5-yl)-6-(6-methyl-7-(trifluoromethyl)-1H-benzo[d]imidazol-2-yl) pyridin-2-amine]	10 to 50 µM	
CCNc1cc(-c2c(-c3nncn3C)cnn2C)cc(-c2nc3cccc(C(F)(F)F)c3o2)n1 [ACW-2, N-Ethyl-4-(1-methyl-4-(4-methyl-4H-1,2,4-triazol-3-yl)-1H-pyrazol-5-yl)-6-(7-(trifluoromethyl)benzo[d]oxazol-2-yl)pyridin-2-amine]	10 to 50 µM	
N#CC1(CN)CCCC1 [AHN-1]		< 0.2 µM
CCNc1cc(-c2ccccc2-c2nncn2C)cc(-c2nc3cccc(C(F)(F)F)c3o2)n1 [AS-12, N-ethyl-4-(2-(4-methyl-4H-1,2,4-triazol-3-yl)phenyl)-6-(7-(trifluoromethyl)benzo[d]oxazol-2-yl)pyridin-2-amine]	10 to 50 µM	
Cn1cnnc1-c1ccccc1-c1cccc(-c2nc3ccc(Br)c(C(F)(F)F)c3[nH]2)c1 [BB-1, 6-Bromo-2-(2′-(4-methyl-4H-1,2,4-triazol-3-yl)-[1,1′-biphenyl]-3-yl)-7-(trifluoromethyl)-1H-benzo[d]imidazole]	10 to 50 µM	
Cn1cnnc1-c1ccccc1-c1cccc(-c2nc3ccc(F)c(C(F)(F)F)c3[nH]2)c1 [BC-1, 6-Fluoro-2-(2′-(4-methyl-4H-1,2,4-triazol-3-yl)-[1,1′-biphenyl]-3-yl)-7-(trifluoromethyl)-1H-benzo[d]imidazole]	10 to 50 µM	
CN1CCC(C(=O)Nc2ccc3nc(-c4cccc(-c5ccccc5-c5nncn5C)c4)[nH]c3c2C(F)(F)F)CC1 [BF-3, 1-Methyl-N-(2-(2′-(4-methyl-4H-1,2,4-triazol-3-yl)-[1,1′-biphenyl]-3-yl)-7-(trifluoromethyl)-1H-benzo[d]imidazol-6-yl)piperidine-4-carboxamide, Formic Acid]	10 to 50 µM	
Cn1cnnc1-c1cc(F)ccc1-c1cccc(-c2nc3ccccc3[nH]2)c1 [CA-2, 2-(4′-Fluoro-2′-(4-methyl-4H-1,2,4-triazol-3-yl)-[1,1′-biphenyl]-3-yl)-1H-benzo[d]imidazole]	10 to 50 µM	
Cn1cnnc1-c1ccccc1-c1cccc(-c2cc(C(F)(F)F)cn(C)c2=O)c1 [CG-4, 1-Methyl-3-(2′-(4-methyl-4H-1,2,4-triazol-3-yl)-[1,1′-biphenyl]-3-yl)-5-(trifluoromethyl)pyridin-2(1H)-one]	10 to 50 µM	
Cn1cnnc1-c1ccccc1-c1cccc(-c2cc(C(F)(F)F)c(C(=O)O)[nH]c2=O)c1 [CH-3, 5-(2′-(4-methyl-4H-1,2,4-triazol-3-yl)-[1,1′-biphenyl]-3-yl)-6-oxo-3-(trifluoromethyl)-1,6-dihydropyridine-2-carboxylic Acid]	10 to 50 µM	
